Experimental data reported in patent US4569792A, “Anti-diabetic compounds” (Eli Lilly and Company, priority 1984, dated 1986).

Key:
Details in all cases: relative to human proinsulin = 1
[1] = system: insulin receptor (125I-insulin binding to IM-9 cells); assay: IM-9 Radioreceptor Assay
Protocol: IM-9 cells were grown in RPMI media containing 2mM glutamine, 25 mM HEPES, and 10% fetal bovine serum. […] Incubations were carried out in 1.5 ml microfuge tubes at 15° C. for two hours. Concentrations of stock solutions containing insulin, proinsulin, or compound of this invention used in the binding studies were established by amino acid analysis and by their absorbance at 276 nm. The cells were resuspended during the assay every 30 minutes by inverting the tubes several times. At the end of the incubation, the tubes were centrifuged for one minute in a Beckman Microfuge, the supernatant was aspirated, the tips of the tubes containing the cell pellet were excised, and the radioactivity was measured.

[2] = system: insulin receptor (125I-labeled insulin binding to isolated fat cells); assay: Isolated Fat Cell Radioreceptor Assay
Protocol: Isolated fat cells were prepared by a modification [Huber, C. T., Solomon, S. S., and Duckworth, W. C., J. Clin. Invest. […] All incubations were in Krebs-Ringer-Hepes (KRH) buffer, pH 7.4, with 4% bovine serum albumin (BSA) in a total volume of 2 ml. […] At selected times, triplicate 300 μl aliquots were removed and added to microfuge tubes containing 100 μl dinonyl phthalate [see Gliemann, J., Osterlind, K., Vinten, J., and Gammeltoft, S., Biochem. Biophys. Acta. […] After centrifugation for one minute in a microfuge, the tubes were cut through the oil layer, and the cell pellet was counted using a gamma counter to determine binding.

isolated rat adipocytes = assay: Biological Activity in Isolated Rat Adipocytes (incorporation of 2-3H-glucose in total fat cell lipid); type: cell-based
Protocol: Adipocytes were prepared from epididymal fat pads by a modification (Huber, supra) of the collagenase digestion procedure of Rodbell, supra. Krebs-Ringer-HEPES (KRH) buffer, pH 7.4, containing 4% bovine serum albumin and 0.55 mM glucose was used in all isolation and incubation steps.
Biological activity was assessed according to the method of Moody, A. J., Stan, M. A., Stan, M., and Glieman, J., Horm. Metab. Res. 6, 12-16 (1974) by monitoring the incorporation of 2-^3 H-glucose in total fat cell lipid. […] Radioactivity was determined in a Searle Isocap 300 liquid scintillation counter at an efficiency of approximately 30%. Blanks were prepared in which the scintillation fluid was added to the vials prior to the addition of cells. The average counts obtained from these vials were subtracted from those observed in all other samples.
Competitive binding curves and biological activity dose-response curves were analyzed using the PREFIT and ALLFIT programs [DeLean, A., Munson, P. J., and Rodbard, D., Am. J. Physiol. 235, E97-E102 (1978)] based on a four-parameter logistic model. These analyses indicated the concentration of insulin or proinsulin necessary to produce a half-maximal response, as well as the maximal and minimal values. All values are presented as the mean ± SEM.

Measured: Relative Potency

Human Proinsulin
1: all assays above
